Test results as given in ChEMBL document CHEMBL1671673, “In vitro activity of colistin (polymyxin E) against 3,480 isolates of gram-negative bacilli obtained from patients in Canadian hospitals in the CANWARD study, 2007-2008” (Antimicrob Agents Chemother, 2009).

Experiments:
Type in all cases: functional, organism-based
Set-up in all cases: scale not given: the % may be the effect or the level left
[1] = test system: Pseudomonas aeruginosa; assay: Antibacterial activity against Pseudomonas aeruginosa assessed as susceptible isolates at minimum inhibitory concentration of 0.5 ug/ml by CLSI broth microdilution method
[2] = test system: Klebsiella pneumoniae; assay: Antibacterial activity against ESBL-producing Klebsiella pneumoniae assessed as susceptible isolates at minimum inhibitory concentration of <=0.06 ug/ml by CLSI broth microdilution method
[3] = test system: Pseudomonas aeruginosa; assay: Antibacterial activity against Ciprofloxacin-resistant Pseudomonas aeruginosa assessed as susceptible isolates at minimum inhibitory concentration of 2 ug/ml by CLSI broth microdilution method
[4] = test system: Proteus mirabilis; assay: Antibacterial activity against Proteus mirabilis assessed as susceptible isolates at minimum inhibitory concentration of <=0.06 ug/ml by CLSI broth microdilution method
[5] = test system: Pseudomonas aeruginosa; assay: Antibacterial activity against Pseudomonas aeruginosa assessed as susceptible isolates at minimum inhibitory concentration of 1 ug/ml by CLSI broth microdilution method
[6] = test system: Klebsiella aerogenes; assay: Antibacterial activity against Enterobacter aerogenes assessed as susceptible isolates at minimum inhibitory concentration of 4 ug/ml by CLSI broth microdilution method
[7] = test system: Klebsiella pneumoniae; assay: Antibacterial activity against ESBL-producing Klebsiella pneumoniae assessed as susceptible isolates at minimum inhibitory concentration of 0.12 ug/ml by CLSI broth microdilution method
[8] = test system: Pseudomonas aeruginosa; assay: Antibacterial activity against tazobactam-resistant Pseudomonas aeruginosa assessed as susceptible isolates at minimum inhibitory concentration of 0.5 ug/ml by CLSI broth microdilution method
[9] = test system: Acinetobacter baumannii; assay: Antibacterial activity against Acinetobacter baumannii assessed as susceptible isolates at minimum inhibitory concentration of 0.12 ug/ml by CLSI broth microdilution method
[10] = test system: Pseudomonas aeruginosa; assay: Antibacterial activity against Levofloxacin-resistant Pseudomonas aeruginosa assessed as susceptible isolates at minimum inhibitory concentration of 2 ug/ml by CLSI broth microdilution method
[11] = test system: Serratia marcescens; assay: Antibacterial activity against Serratia marcescens assessed as susceptible isolates at minimum inhibitory concentration of 1 ug/ml by CLSI broth microdilution method
[12] = test system: Stenotrophomonas maltophilia; assay: Antibacterial activity against Stenotrophomonas maltophilia assessed as susceptible isolates at minimum inhibitory concentration of 0.25 ug/ml by CLSI broth microdilution method
[13] = test system: Pseudomonas aeruginosa; assay: Antibacterial activity against Gentamicin-resistant Pseudomonas aeruginosa assessed as susceptible isolates at minimum inhibitory concentration of 16 ug/ml by CLSI broth microdilution method
[14] = test system: Pseudomonas aeruginosa; assay: Antibacterial activity against Ciprofloxacin-resistant Pseudomonas aeruginosa assessed as susceptible isolates at minimum inhibitory concentration of >16 ug/ml by CLSI broth microdilution method
[15] = test system: Pseudomonas aeruginosa; assay: Antibacterial activity against Pseudomonas aeruginosa assessed as susceptible isolates at minimum inhibitory concentration of >16 ug/ml by CLSI broth microdilution method
[16] = test system: Proteus mirabilis; assay: Antibacterial activity against Proteus mirabilis assessed as susceptible isolates at minimum inhibitory concentration of >16 ug/ml by CLSI broth microdilution method
[17] = test system: Pseudomonas aeruginosa; assay: Antibacterial activity against Levofloxacin-resistant Pseudomonas aeruginosa assessed as susceptible isolates at minimum inhibitory concentration of 4 ug/ml by CLSI broth microdilution method
[18] = test system: Pseudomonas aeruginosa; assay: Antibacterial activity against Levofloxacin-resistant Pseudomonas aeruginosa assessed as susceptible isolates at minimum inhibitory concentration of 8 ug/ml by CLSI broth microdilution method
[19] = test system: Stenotrophomonas maltophilia; assay: Antibacterial activity against Stenotrophomonas maltophilia assessed as susceptible isolates at minimum inhibitory concentration of >16 ug/ml by CLSI broth microdilution method
[20] = test system: Pseudomonas aeruginosa; assay: Antibacterial activity against Meropenem-resistant Pseudomonas aeruginosa assessed as susceptible isolates at minimum inhibitory concentration of 4 ug/ml by CLSI broth microdilution method
[21] = test system: Pseudomonas aeruginosa; assay: Antibacterial activity against Pseudomonas aeruginosa assessed as susceptible isolates at minimum inhibitory concentration of 8 ug/ml by CLSI broth microdilution method
[22] = test system: Enterobacter cloacae; assay: Antibacterial activity against Enterobacter cloacae assessed as susceptible isolates at minimum inhibitory concentration of 0.12 ug/ml by CLSI broth microdilution method
[23] = test system: Acinetobacter baumannii; assay: Antibacterial activity against Acinetobacter baumannii assessed as susceptible isolates at minimum inhibitory concentration of 0.5 ug/ml by CLSI broth microdilution method
[24] = test system: Pseudomonas aeruginosa; assay: Antibacterial activity against Amikacin-resistant Pseudomonas aeruginosa assessed as susceptible isolates at minimum inhibitory concentration of 8 ug/ml by CLSI broth microdilution method
[25] = test system: Pseudomonas aeruginosa; assay: Antibacterial activity against Amikacin-resistant Pseudomonas aeruginosa assessed as susceptible isolates at minimum inhibitory concentration of 0.5 ug/ml by CLSI broth microdilution method
[26] = test system: Pseudomonas aeruginosa; assay: Antibacterial activity against Ciprofloxacin-resistant Pseudomonas aeruginosa assessed as susceptible isolates at minimum inhibitory concentration of 4 ug/ml by CLSI broth microdilution method
[27] = test system: Pseudomonas aeruginosa; assay: Antibacterial activity against Piperacillin-resistant Pseudomonas aeruginosa assessed as susceptible isolates at minimum inhibitory concentration of 1 ug/ml by CLSI broth microdilution method
[28] = test system: Klebsiella oxytoca; assay: Antibacterial activity against Klebsiella oxytoca assessed as susceptible isolates at minimum inhibitory concentration of 0.25 ug/ml by CLSI broth microdilution method
[29] = test system: Pseudomonas aeruginosa; assay: Antibacterial activity against Levofloxacin-resistant Pseudomonas aeruginosa assessed as susceptible isolates at minimum inhibitory concentration of 16 ug/ml by CLSI broth microdilution method
[30] = test system: Pseudomonas aeruginosa; assay: Antibacterial activity against Ciprofloxacin-resistant Pseudomonas aeruginosa assessed as susceptible isolates at minimum inhibitory concentration of 8 ug/ml by CLSI broth microdilution method
[31] = test system: Stenotrophomonas maltophilia; assay: Antibacterial activity against Stenotrophomonas maltophilia assessed as susceptible isolates at minimum inhibitory concentration of 2 ug/ml by CLSI broth microdilution method
[32] = test system: Stenotrophomonas maltophilia; assay: Antibacterial activity against Stenotrophomonas maltophilia assessed as susceptible isolates at minimum inhibitory concentration of <=0.06 ug/ml by CLSI broth microdilution method
[33] = test system: Klebsiella pneumoniae; assay: Antibacterial activity against ESBL-producing Klebsiella pneumoniae assessed as susceptible isolates at minimum inhibitory concentration of 0.5 ug/ml by CLSI broth microdilution method

## COLISTIN
[1]
  Activity: 2.5%
[2]
  Activity: 0%
[3]
  Activity: 92.5%
[4]
  Activity: 0%
[5]
  Activity: 29.1%
[6]
  Activity: 100%
[7]
  Activity: 0.8%
[8]
  Activity: 1.8%
[9]
  Activity: 0%
[10]
  Activity: 92.2%
[11]
  Activity: 1.9%
[12]
  Activity: 1.2%
[13]
  Activity: 99%
[14]
  Activity: 100%
[15]
  Activity: 100%
[16]
  Activity: 100%
[17]
  Activity: 98.2%
[18]
  Activity: 98.2%
[19]
  Activity: 100%
[20]
  Activity: 100%
[21]
  Activity: 99.1%
[22]
  Activity: 1.6%
[23]
  Activity: 6.5%
[24]
  Activity: 97.4%
[25]
  Activity: 5.3%
[26]
  Activity: 98.6%
[27]
  Activity: 37.5%
[28]
  Activity: 18.5%
[29]
  Activity: 98.2%
[30]
  Activity: 98.6%
[31]
  Activity: 15.7%
[32]
  Activity: 0%
[33]
  Activity: 77.9%
